Experiments:
Type in all cases: cell-based
[1] = test system: MDA-MB-231 (breast cancer) cell line; experiment: Cell growth inhibition experiment (SRB), MDA-MB-231; conditions: Homo sapiens, incubated for 96 hours, read-out: IC50 (μM) of cancer cell lines MDA-MB-231
Procedure: (§1) The cell lines below were used in order to confirm the efficacy of the compounds synthesized in Examples 1 to 27. Human PANC-1 (pancreatic cancer) and MDA-MB-231 (breast cancer) cell lines were obtained from American Type Culture Collection (ATCC; Manassas, Va.); and HN31 (head and neck cancer) and UMRC2 (kidney cancer) cell lines were secured from the United States National Institutes of Health (Bethesda, Md.). The MDA-MB-231, UMRC2, HN31, and PANC-1 cell lines were cultured in Dulbecco modified Eagle medium (DMEM) containing FBS (10%), HEPES (10 mM), penicillin (100 U/mL), and streptomycin (100 μg/mL). All cell lines were cultured in an incubator (37° C., 5% CO2).
(§2) The 4-(aryl)-N-(2-alkoxythieno[3,2-b]pyrazin-3-yl)-piperazin-1-carboxamide derivative compounds synthesized according to Examples 1 to 27 of the present invention were treated with various human tissue-derived cancer cell lines cultured according to Experimental Example 1, and thus the inhibitory effect of the growth of human cancer cells was confirmed. The cell growth inhibition experiment was conducted using sulforhodamine B (SRB) technique (Skehan et al., J. National Cancer Institute, 1990, 82: 1107-1112). Specifically, each cell line was seeded in a 96-well plate at a density of 2 to 3×10^3 cells/well, cultured overnight, and then treated with the 4-(aryl)-N-(2-alkoxythieno[3,2-b]pyrazin-3-yl)-piperazin-1-carboxamide derivative compounds of the present invention. The experiment was repeated 3 times for each compound. Cells treated with each compound were additionally incubated for 96 hours, fixed with 10% trichloroacetic acid (TCA), and then left at 4° C. for 1 hour. The resultant was washed 3 times with distilled water. Thereafter, each cell was treated with 0.4% sulforhodamine B dissolved in 1% acetic acid, stained for 30 minutes, and then washed 4 times with 1% acetic acid. The resultant was dried in the air. After shaking the resultant in Tris solution (10 mM) for 5 minutes, the absorbance was measured at 530 nm using a Benchmark Plus Microplate reader (Bio-Rad Laboratories, Hercules, Calif.).
(§3) In order to convert the OD530 value to the number of viable cells per each well, the measured OD530 value was compared to the standard OD530-vs.-cell number curve of each cell line. The percent survival was calculated using the following formula: % survival=Nlive cells(test)/Nlive cells(control)×100
(§4) IC50 values were calculated by nonlinear regression analysis.

[2] = test system: UMRC2 (kidney cancer) cell line; experiment: Cell growth inhibition experiment (SRB), UMRC2; conditions: Homo sapiens, incubated for 96 hours, read-out: IC50 (μM) of cancer cell lines UMRC2
Procedure: as §1, §2, §3, §4

[3] = test system: PANC-1 (pancreatic cancer) cell line; experiment: Cell growth inhibition experiment (SRB), PANC-1; conditions: Homo sapiens, incubated for 96 hours, read-out: IC50 (μM) of cancer cell lines PANC-1
Procedure: as §1, §2, §3, §4

[4] = test system: HN31 (head and neck cancer) cell line; experiment: Cell growth inhibition experiment (SRB), HN31; conditions: Homo sapiens, incubated for 96 hours, read-out: IC50 (μM) of cancer cell lines HN31
Procedure: as §1, §2, §3, §4

A549 = experiment: Cell growth inhibition experiment (SRB), A549; conditions: Homo sapiens, incubated for 96 hours, read-out: IC50 (μM) of cancer cell lines A549
Procedure: as §2, §3, §4

HEK293 = experiment: Cell growth inhibition experiment (SRB), HEK293; conditions: Homo sapiens, incubated for 96 hours, read-out: IC50 (μM) of cancer cell lines HEK293
Procedure: as §2, §3, §4

HUVEC = experiment: Cell growth inhibition experiment (SRB), HUVEC; conditions: Homo sapiens, incubated for 96 hours, read-out: IC50 (μM) of cancer cell lines HUVEC
Procedure: as §2, §3, §4

HT29 = experiment: Cell growth inhibition experiment (SRB), HT29; conditions: Homo sapiens, HT-29, incubated for 96 hours, read-out: IC50 (μM) of cancer cell lines HT29
Procedure: as §2, §3, §4

SK-OV-3 = experiment: Cell growth inhibition experiment (SRB), SK-OV-3; conditions: Homo sapiens, incubated for 96 hours, read-out: IC50 (μM) of cancer cell lines SK-OV-3
Procedure: as §2, §3, §4

SMILES	IC50 [1]	IC50 [2]	IC50 [3]	IC50 [4]	IC50 (A549)	IC50 (HT29)	IC50 (SK-OV-3)	IC50 (HEK293)	IC50 (HUVEC)
Cc1cc(C)cc(N2CCN(C(=O)Nc3nc4sccc4nc3OC(C)C)CC2)c1 [Example 17, 4-(3,5-dimethylphenyl)-N-(2-isopropoxythieno[3,2-b]pyrazin-3-yl)piperazin-1-carboxamide]	< 2.5 µM	< 2.5 µM	< 2.5 µM	< 2.5 µM	< 2.5 µM	< 2.5 µM	< 2.5 µM	< 2.5 µM	< 2.5 µM
CC(C)Oc1nc2ccsc2nc1NC(=O)N1CCN(c2cc(F)cc(F)c2)CC1 [Example 18, 4-(3,5-difluorophenyl)-N-(2-isopropoxythieno[3,2-b]pyrazin-3-yl)piperazin-1-carboxamide]	< 2.5 µM	< 2.5 µM	< 2.5 µM	< 2.5 µM	< 2.5 µM	< 2.5 µM	< 2.5 µM	< 2.5 µM	< 2.5 µM
COc1nc2ccsc2nc1NC(=O)N1CCN(c2cc(C)cc(OC(F)(F)F)c2)CC1 [Example 19, N-(2-methoxythieno[3,2-b]pyrazin-3-yl)-4-(3-methyl-5-(trifluoromethoxy)phenyl)piperazin-1-carboxamide]	< 2.5 µM	0.25 µM	0.58 µM	1.12 µM	1.52 µM	0.71 µM	< 2.5 µM	1.23 µM	0.68 µM
COc1nc2ccsc2nc1NC(=O)N1CCN(c2cc(OC(F)(F)F)cc(C(F)(F)F)c2)CC1 [Example 20, N-(2-methoxythieno[3,2-b]pyrazin-3-yl)-4-(3-(trifluoromethoxy)-5-(trifluoromethyl)phenyl)piperazin-1-carboxamide]	0.25 µM	< 2.5 µM	0.36 µM	0.36 µM	0.15 µM	0.62 µM	0.22 µM	0.12 µM	0.21 µM
COc1cc(C)cc(N2CCN(C(=O)Nc3nc4sccc4nc3OC)CC2)c1 [Example 21, 4-(3-methoxy-5-methylphenyl)-N-(2-methoxythieno[3,2-b]pyrazin-3-yl)piperazin-1-carboxamide]	2.21 µM	1.74 µM	2.12 µM	< 2.5 µM	1.63 µM	1.85 µM	1.85 µM	1.25 µM	< 2.5 µM
COc1cc(F)cc(N2CCN(C(=O)Nc3nc4sccc4nc3OC)CC2)c1 [Example 22, 4-(3-fluoro-5-methoxyphenyl)-N-(2-methoxythieno[3,2-b]pyrazin-3-yl)piperazin-1-carboxamide]	0.52 µM	0.21 µM	0.63 µM	0.45 µM	2.21 µM	1.12 µM	1.36 µM	1.12 µM	1.36 µM
COc1nc2ccsc2nc1NC(=O)N1CCN(c2cc(C)cc(F)c2)CC1 [Example 23, 4-(3-fluoro-5-methylphenyl)-N-(2-methoxythieno[3,2-b]pyrazin-3-yl)piperazin-1-carboxamide]	0.36 µM	< 2.5 µM	0.58 µM	0.28 µM	0.63 µM	0.28 µM	0.36 µM	0.35 µM	0.45 µM
COc1nc2ccsc2nc1NC(=O)N1CCN(c2cccc(OC(F)(F)F)c2)CC1 [Example 24, N-(2-methoxythieno[3,2-b]pyrazin-3-yl)-4-(3-(trifluoromethoxy)phenyl)piperazin-1-carboxamide]	0.12 µM	0.36 µM	0.44 µM	< 2.5 µM	0.87 µM	0.36 µM	0.12 µM	0.25 µM	< 2.5 µM

Now from value to molecule, other results behind:

IC50 [1]	IC50 [2]	IC50 [3]	IC50 [4]	IC50 (A549)	IC50 (HT29)	IC50 (SK-OV-3)	SMILES	IC50 (HEK293)	IC50 (HUVEC)
0.15 µM	< 2.5 µM	0.08 µM	0.17 µM	0.22 µM	0.25 µM	0.63 µM	COc1cc(OC(F)(F)F)cc(N2CCN(C(=O)Nc3nc4sccc4nc3OC)CC2)c1 [Example 25, 4-(3-methoxy-5-(trifluoromethoxy)phenyl)-N-(2-methoxythieno[3,2-b]pyrazin-3-yl)piperazin-1-carboxamide]	0.36 µM	0.13 µM
< 2.5 µM	< 2.5 µM	< 2.5 µM	< 2.5 µM	< 2.5 µM	< 2.5 µM	< 2.5 µM	COc1nc2ccsc2nc1NC(=O)N1CCN(c2cc(F)cc(OC(F)(F)F)c2)CC1 [Example 26, 4-(3-fluoro-5-(trifluoromethoxy)phenyl)-N-(2-methoxythieno[3,2-b]pyrazin-3-yl)piperazin-1-carboxamide]	< 2.5 µM	< 2.5 µM
< 2.5 µM	< 2.5 µM	< 2.5 µM	< 2.5 µM	< 2.5 µM	< 2.5 µM	< 2.5 µM	COc1nc2ccsc2nc1NC(=O)N1CCN(c2cc(F)cc(C(F)(F)F)c2)CC1 [Example 27, 4-(3-fluoro-5-(trifluoromethyl)phenyl)-N-(2-methoxythieno[3,2-b]pyrazin-3-yl)piperazin-1-carboxamide]	< 2.5 µM	< 2.5 µM
